ChEMBL document CHEMBL5728996 (2022)

Legend:
Adenosine receptor A2a = Adenosine receptor A2a (Homo sapiens, UniProt P29274); assay: (§1) Activity Assay: Compounds (Adenosine Receptor modulators) and activity assay.; assay type: single protein
Adenosine receptor A2b = biological target: T1, Adenosine receptor A2b (Homo sapiens, UniProt P29275); assay: as §1
T1 sequence (P29275 whole entry): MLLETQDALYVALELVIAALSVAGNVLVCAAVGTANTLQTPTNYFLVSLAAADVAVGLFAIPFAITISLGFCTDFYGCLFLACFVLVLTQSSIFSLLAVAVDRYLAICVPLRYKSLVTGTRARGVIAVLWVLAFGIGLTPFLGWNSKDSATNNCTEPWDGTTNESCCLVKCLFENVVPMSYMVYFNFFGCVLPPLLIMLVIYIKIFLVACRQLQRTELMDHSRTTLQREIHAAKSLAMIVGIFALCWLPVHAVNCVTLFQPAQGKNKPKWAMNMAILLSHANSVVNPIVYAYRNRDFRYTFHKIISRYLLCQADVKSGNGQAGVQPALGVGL

Adenosine receptor A1 = biological target: T2, Adenosine receptor A1 (Homo sapiens, UniProt P30542); assay: as §1
T2 sequence (P30542 whole entry): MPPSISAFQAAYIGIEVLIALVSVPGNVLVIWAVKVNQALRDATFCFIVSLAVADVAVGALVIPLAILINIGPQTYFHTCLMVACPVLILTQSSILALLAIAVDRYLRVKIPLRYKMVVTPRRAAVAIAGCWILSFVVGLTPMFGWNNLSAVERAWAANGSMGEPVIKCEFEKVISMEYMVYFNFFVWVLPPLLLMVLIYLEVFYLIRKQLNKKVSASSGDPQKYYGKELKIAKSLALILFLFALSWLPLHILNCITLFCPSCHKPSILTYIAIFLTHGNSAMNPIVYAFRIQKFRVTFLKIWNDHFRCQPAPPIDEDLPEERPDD

Adenosine receptor A3 = biological target: T3, Adenosine receptor A3 (Homo sapiens, UniProt P0DMS8); assay: as §1
T3 sequence (P0DMS8 whole entry): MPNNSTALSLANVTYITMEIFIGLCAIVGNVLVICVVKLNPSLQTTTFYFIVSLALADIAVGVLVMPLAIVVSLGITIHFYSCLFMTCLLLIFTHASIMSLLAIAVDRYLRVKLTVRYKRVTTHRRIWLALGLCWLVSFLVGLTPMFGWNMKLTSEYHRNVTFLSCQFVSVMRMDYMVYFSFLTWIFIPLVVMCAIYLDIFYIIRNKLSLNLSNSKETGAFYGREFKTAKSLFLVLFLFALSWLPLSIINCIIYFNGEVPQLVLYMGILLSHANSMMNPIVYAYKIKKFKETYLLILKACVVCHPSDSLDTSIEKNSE

Adenosine receptor A2a, sequence (P29274 whole entry): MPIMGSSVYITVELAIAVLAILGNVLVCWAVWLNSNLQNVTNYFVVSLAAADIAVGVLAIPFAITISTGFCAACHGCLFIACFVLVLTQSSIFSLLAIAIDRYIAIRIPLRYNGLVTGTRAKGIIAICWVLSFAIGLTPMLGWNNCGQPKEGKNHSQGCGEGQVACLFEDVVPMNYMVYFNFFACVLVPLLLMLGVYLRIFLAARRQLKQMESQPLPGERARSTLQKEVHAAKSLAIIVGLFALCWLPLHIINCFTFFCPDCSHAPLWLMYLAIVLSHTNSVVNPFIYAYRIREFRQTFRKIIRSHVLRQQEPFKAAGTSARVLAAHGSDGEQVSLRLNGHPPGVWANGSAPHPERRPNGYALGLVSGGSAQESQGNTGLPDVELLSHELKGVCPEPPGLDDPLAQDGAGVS

IC50 (Adenosine receptor A2a) [nM]	IC50 (Adenosine receptor A2b) [nM]	IC50 (Adenosine receptor A1) [nM]	IC50 (Adenosine receptor A3) [nM]	Compound
–	–	> 500	> 500	COc1ccc(CNC(=O)c2nc(NCc3cncc(F)c3)nc3ccsc23)cn1
> 500	–	> 500	> 500	C[C@H](Nc1nc(C(=O)N2CC(N)C2)c2sccc2n1)c1cncc(F)c1
> 500	–	> 500	–	CC(=O)Nc1ccc(CCNC(=O)c2nc(N[C@@H](C)c3cccnc3)nc3cc(C)sc23)cc1
–	–	> 500	> 500	C[C@H](Nc1nc(C(=O)NCCO)c2sccc2n1)c1cccnc1
> 500	–	> 500	> 500	C[C@H](Nc1nc(C(=O)N2CC(CN)C2)c2sccc2n1)c1cncc(F)c1
> 500	–	> 500	> 500	CC(=O)Nc1ccc(CCNC(=O)c2nc(N[C@@H](C)c3cncc(F)c3)nc3ccsc23)cc1
–	< 10	–	–	C[C@H](Nc1nc(C(=O)NCCc2ccccc2O)c2sccc2n1)c1cncc(F)c1

Continued, compound first:

Compound	IC50 (Adenosine receptor A2a) [nM]	IC50 (Adenosine receptor A2b) [nM]	IC50 (Adenosine receptor A1) [nM]	IC50 (Adenosine receptor A3) [nM]
C[C@H](Nc1nc(C(=O)N2CC[C@@H](S(C)(=O)=O)C2)c2sccc2n1)c1ccccn1	> 500	–	–	–
COCCN1CCC(CNC(=O)c2nc(N[C@@H](C)c3ccccn3)nc3ccsc23)CC1	> 500	> 500	–	–
C[C@H](Nc1nc(C(=O)N2CC[C@@H](NC(=O)OC(C)(C)C)C2)c2sccc2n1)c1ccccn1	–	–	> 500	> 500
CCC(Nc1nc(C(=O)NCc2ccc(OC)nc2)c2sccc2n1)c1cccnc1 (configuration not stated)	–	> 500	–	–
O=C(c1nc(NCc2ccc(F)cn2)nc2ccsc12)N1CC[C@H](O)C1	> 500	> 500	–	–
C[C@H](Nc1nc(C(=O)N[C@H]2CC[C@@H](O)C2)c2sccc2n1)c1ccccn1	–	< 10	> 500	> 500
O=C(c1nc(NCc2cncc(F)c2)nc2ccsc12)N1CCCC1	–	< 10	> 500	> 500
CC(C)(C)OC(=O)N1CCC[C@@H]1CNC(=O)c1nc(NCc2cncc(F)c2)nc2ccsc12	> 500	> 500	–	–
